From ChEMBL document CHEMBL5150077, “Identification of TUL01101: A Novel Potent and Selective JAK1 Inhibitor for the Treatment of Rheumatoid Arthritis” (J Med Chem, 2022)
The source made the active and inactive calls. No cut-off for these calls is given here.

Assays:
[1] = test system: Mus musculus; assay: Antiarthritic activity in collagen-induced rheumatoid arthritis DBA/1 mouse model assessed as reduction in clinical score at 15 mg/kg, po BID administered for 14 days starting from 7 days before immunization to 21 days after immunization and measured on day 41 post immunization (reference value: 5.75); assay type: functional; details: time 14 day
[2] = target: ALK tyrosine kinase receptor (Homo sapiens) (UniProt Q9UM73); assay: Inhibition of human ALK assessed as residual activity at 30 uM relative to control
Sequence of ALK tyrosine kinase receptor (Homo sapiens) (Q9UM73 19-1620 limits assumed): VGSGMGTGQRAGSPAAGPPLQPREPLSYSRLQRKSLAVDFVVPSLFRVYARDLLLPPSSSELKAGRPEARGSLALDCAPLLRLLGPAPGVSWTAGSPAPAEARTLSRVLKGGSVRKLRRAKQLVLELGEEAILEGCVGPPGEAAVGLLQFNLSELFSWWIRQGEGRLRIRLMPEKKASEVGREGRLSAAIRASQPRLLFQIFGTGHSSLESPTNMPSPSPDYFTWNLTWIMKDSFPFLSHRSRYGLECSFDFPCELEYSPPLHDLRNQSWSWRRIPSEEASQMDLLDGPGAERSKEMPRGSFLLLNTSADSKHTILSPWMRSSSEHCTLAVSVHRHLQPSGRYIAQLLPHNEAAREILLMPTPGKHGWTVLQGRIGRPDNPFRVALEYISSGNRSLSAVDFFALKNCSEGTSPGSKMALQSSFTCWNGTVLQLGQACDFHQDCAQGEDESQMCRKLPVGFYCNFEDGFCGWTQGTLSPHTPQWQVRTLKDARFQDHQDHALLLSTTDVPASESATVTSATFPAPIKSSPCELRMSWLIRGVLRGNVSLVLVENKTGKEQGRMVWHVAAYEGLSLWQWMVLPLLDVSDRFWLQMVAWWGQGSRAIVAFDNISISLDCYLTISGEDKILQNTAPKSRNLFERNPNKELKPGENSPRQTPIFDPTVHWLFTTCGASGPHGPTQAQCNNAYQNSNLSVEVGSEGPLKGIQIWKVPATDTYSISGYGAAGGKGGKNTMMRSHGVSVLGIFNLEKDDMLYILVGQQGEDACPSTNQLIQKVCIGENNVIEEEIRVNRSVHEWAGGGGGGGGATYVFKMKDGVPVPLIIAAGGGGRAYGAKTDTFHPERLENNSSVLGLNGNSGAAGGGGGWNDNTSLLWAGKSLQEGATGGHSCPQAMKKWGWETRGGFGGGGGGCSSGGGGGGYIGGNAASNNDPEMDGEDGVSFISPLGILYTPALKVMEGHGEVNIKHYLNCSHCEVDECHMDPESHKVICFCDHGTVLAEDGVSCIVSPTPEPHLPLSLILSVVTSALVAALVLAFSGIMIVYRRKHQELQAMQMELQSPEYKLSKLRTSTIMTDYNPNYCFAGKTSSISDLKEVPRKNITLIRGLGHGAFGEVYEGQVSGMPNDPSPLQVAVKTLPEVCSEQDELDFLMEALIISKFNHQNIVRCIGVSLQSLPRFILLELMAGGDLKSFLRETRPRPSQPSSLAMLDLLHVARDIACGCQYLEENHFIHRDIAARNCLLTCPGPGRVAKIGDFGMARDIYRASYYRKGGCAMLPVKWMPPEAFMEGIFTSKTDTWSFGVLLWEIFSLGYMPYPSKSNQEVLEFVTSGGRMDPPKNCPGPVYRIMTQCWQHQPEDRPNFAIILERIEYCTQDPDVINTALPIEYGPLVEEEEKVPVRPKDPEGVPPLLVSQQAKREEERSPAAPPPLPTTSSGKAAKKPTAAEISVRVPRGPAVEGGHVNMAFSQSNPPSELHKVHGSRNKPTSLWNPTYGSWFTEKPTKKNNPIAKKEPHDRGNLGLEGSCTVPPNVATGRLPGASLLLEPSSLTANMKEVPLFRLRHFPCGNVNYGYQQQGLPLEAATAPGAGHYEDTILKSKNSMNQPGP

[3] = target: Tyrosine-protein kinase Blk (Homo sapiens) (UniProt P51451); assay: Inhibition of human BLK assessed as residual activity at 30 uM relative to control
[4] = target: Cytoplasmic tyrosine-protein kinase BMX (Homo sapiens) (UniProt P51813); assay: Inhibition of human BMX assessed as residual activity at 30 uM relative to control
[5] = target: Receptor-type tyrosine-protein kinase FLT3 (Homo sapiens) (UniProt P36888); assay: Inhibition of human FLT3 assessed as residual activity at 30 uM relative to control
[6] = target: Glycogen synthase kinase-3 beta (Homo sapiens) (UniProt P49841); assay: Inhibition of human GSK3beta assessed as residual activity at 30 uM relative to control
[7] = target: Inhibitor of nuclear factor kappa-B kinase subunit beta (Homo sapiens) (UniProt O14920); assay: Inhibition of human IKKbeta assessed as residual activity at 30 uM relative to control
[8] = target: Tyrosine-protein kinase SYK (Homo sapiens) (UniProt P43405); assay: Inhibition of human SYK assessed as residual activity at 30 uM relative to control
[9] = target: Serine/threonine-protein kinase B-raf (Homo sapiens) (UniProt P15056); assay: Inhibition of human B-raf assessed as residual activity at 30 uM relative to control
Sequence of Serine/threonine-protein kinase B-raf (Homo sapiens) (P15056 whole entry): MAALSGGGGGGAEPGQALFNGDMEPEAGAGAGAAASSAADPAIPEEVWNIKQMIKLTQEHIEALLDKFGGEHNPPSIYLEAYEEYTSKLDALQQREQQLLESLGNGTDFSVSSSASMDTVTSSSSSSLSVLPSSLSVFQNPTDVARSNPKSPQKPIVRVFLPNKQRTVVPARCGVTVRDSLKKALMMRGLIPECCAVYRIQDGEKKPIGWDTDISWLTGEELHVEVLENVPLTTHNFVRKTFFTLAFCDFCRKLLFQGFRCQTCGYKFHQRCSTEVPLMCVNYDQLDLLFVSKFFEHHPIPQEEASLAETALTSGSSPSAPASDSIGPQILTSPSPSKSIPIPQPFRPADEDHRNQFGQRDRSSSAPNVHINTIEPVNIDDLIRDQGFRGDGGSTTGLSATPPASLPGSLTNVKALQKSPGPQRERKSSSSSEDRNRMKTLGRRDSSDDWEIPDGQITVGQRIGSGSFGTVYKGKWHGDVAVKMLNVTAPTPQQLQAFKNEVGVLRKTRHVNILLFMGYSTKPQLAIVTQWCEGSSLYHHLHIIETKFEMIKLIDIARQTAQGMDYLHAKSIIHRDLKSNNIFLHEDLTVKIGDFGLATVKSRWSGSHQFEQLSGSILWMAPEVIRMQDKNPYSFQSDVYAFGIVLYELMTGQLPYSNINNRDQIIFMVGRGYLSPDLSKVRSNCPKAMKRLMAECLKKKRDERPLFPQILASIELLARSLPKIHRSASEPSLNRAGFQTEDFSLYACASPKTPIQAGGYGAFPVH

[10] = target: Calcium/calmodulin-dependent protein kinase type II subunit alpha (Homo sapiens) (UniProt Q9UQM7); assay: Inhibition of human CAMKIIalpha assessed as residual activity at 30 uM relative to control
[11] = organism: Homo sapiens; assay: Inhibition of human CDK1/Cyclin B assessed as residual activity at 30 uM relative to control
[12] = target: Serine/threonine-protein kinase Chk1 (Homo sapiens) (UniProt O14757); assay: Inhibition of human CHK1 assessed as residual activity at 30 uM relative to control
Sequence of Serine/threonine-protein kinase Chk1 (Homo sapiens) (O14757 whole entry): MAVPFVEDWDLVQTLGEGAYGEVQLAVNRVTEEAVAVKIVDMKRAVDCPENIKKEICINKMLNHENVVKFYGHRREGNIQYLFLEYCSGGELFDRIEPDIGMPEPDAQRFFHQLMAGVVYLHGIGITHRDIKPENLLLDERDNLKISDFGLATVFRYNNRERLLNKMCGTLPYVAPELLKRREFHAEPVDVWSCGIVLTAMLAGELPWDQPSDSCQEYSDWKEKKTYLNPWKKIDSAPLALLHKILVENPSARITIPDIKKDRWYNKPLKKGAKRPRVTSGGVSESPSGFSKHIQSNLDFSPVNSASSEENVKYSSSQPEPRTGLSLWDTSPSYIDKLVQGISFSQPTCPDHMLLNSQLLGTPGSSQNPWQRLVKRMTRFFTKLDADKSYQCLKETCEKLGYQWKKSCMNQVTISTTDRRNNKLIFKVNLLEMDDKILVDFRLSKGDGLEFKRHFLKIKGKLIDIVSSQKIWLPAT

[13] = target: Platelet-derived growth factor receptor beta (Homo sapiens) (UniProt P09619); assay: Inhibition of human PDGFRbeta assessed as residual activity at 30 uM relative to control
[14] = target: Vascular endothelial growth factor receptor 2 (Homo sapiens) (UniProt P35968); assay: Inhibition of human KDR assessed as residual activity at 30 uM relative to control
[15] = target: Dual specificity tyrosine-phosphorylation-regulated kinase 3 (Homo sapiens) (UniProt O43781); assay: Inhibition of human DYRK3 assessed as residual activity at 30 uM relative to control
[16] = target: [Pyruvate dehydrogenase (acetyl-transferring)] kinase isozyme 1, mitochondrial (Homo sapiens) (UniProt Q15118); assay: Inhibition of human PDK1 assessed as residual activity at 30 uM relative to control
[17] = target: Hepatocyte growth factor receptor (Homo sapiens) (UniProt P08581); assay: Inhibition of human MET assessed as residual activity at 30 uM relative to control
[18] = target: Serine/threonine-protein kinase 26 (Homo sapiens) (UniProt Q9P289); assay: Inhibition of human MST4 assessed as residual activity at 30 uM relative to control
Sequence of Serine/threonine-protein kinase 26 (Homo sapiens) (Q9P289 2-416 limits assumed): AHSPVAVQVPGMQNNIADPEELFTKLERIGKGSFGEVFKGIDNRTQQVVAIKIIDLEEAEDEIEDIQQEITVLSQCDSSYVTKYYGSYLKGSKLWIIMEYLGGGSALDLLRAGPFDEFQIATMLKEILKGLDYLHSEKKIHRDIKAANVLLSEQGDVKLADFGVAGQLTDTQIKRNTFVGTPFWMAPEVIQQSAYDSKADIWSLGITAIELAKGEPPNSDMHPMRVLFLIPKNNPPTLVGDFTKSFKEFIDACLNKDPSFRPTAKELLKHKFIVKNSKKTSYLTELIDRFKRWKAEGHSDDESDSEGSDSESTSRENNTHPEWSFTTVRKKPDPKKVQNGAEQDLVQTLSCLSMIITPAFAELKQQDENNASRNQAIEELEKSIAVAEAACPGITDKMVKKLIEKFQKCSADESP

[19] = target: Serine/threonine-protein kinase PAK 2 (Homo sapiens) (UniProt Q13177); assay: Inhibition of human PAK2 assessed as residual activity at 30 uM relative to control
Sequence of Serine/threonine-protein kinase PAK 2 (Homo sapiens) (Q13177 whole entry): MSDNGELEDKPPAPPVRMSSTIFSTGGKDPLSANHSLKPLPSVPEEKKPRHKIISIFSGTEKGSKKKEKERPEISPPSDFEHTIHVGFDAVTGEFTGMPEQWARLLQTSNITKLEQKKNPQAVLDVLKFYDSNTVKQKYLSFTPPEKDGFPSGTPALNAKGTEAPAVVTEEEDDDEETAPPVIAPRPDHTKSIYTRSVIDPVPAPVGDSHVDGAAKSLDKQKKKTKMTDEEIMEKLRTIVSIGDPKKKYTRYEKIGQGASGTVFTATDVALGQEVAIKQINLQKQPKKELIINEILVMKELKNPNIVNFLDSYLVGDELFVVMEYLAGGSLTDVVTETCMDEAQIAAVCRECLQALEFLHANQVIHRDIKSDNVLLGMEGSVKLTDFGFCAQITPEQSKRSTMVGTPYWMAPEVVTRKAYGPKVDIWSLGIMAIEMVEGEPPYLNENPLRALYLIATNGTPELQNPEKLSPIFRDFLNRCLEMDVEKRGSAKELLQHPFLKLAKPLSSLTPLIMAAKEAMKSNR

[20] = target: Platelet-derived growth factor receptor alpha (Homo sapiens) (UniProt P16234); assay: Inhibition of human PDGFRalpha assessed as residual activity at 30 uM relative to control
Sequence of Platelet-derived growth factor receptor alpha (Homo sapiens) (P16234 whole entry): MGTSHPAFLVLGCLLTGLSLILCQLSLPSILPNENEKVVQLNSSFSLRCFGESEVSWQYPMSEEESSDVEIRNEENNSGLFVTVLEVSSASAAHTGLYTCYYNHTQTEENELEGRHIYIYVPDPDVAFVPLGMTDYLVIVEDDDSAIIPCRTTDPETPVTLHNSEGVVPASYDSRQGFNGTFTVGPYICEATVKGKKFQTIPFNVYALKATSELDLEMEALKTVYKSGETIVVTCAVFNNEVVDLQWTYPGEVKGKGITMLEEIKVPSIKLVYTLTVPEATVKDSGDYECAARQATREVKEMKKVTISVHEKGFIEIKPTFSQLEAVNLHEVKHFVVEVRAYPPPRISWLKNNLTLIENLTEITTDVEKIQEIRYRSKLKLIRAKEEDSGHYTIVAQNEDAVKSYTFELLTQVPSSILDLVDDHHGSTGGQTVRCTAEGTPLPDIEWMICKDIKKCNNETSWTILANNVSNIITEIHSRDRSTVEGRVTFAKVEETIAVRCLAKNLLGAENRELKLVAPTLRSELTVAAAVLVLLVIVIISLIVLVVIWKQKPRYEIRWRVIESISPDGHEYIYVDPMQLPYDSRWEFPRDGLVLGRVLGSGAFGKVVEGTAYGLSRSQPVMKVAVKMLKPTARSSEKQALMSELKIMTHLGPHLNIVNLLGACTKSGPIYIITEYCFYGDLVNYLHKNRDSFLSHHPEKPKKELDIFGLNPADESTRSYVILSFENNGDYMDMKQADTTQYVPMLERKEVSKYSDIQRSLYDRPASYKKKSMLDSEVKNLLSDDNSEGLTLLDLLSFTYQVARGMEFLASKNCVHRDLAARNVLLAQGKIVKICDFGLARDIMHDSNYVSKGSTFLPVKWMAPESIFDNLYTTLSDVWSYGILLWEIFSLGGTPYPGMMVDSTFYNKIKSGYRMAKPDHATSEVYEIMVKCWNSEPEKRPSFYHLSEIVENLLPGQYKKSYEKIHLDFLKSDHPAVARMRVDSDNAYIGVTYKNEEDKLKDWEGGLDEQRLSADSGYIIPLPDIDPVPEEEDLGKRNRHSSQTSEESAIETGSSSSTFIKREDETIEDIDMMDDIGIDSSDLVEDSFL

[21] = Elimination half life in Sprague-Dawley rat at 10 mg/kg, po measured for 24 hrs by LC-MS/MS analysis; assay type: ADME, organism-based; details: in vivo, read-out: beta t1/2 (converted)
[22] = Volume of distribution at steady state in Sprague-Dawley rat at 1 mg/kg, iv measured for 24 hrs by LC-MS/MS analysis; assay type: ADME, organism-based; details: in vivo, read-out: Vdss
[23] = Clearance in Sprague-Dawley rat at 1 mg/kg, iv measured for 24 hrs by LC-MS/MS analysis; assay type: ADME, organism-based; details: in vivo
[24] = Clearance in beagle dog at 0.2 mg/kg, iv measured for 24 hrs by LC-MS/MS analysis; assay type: ADME, organism-based, Canis lupus familiaris; details: in vivo
[25] = AUC in beagle dog at 5 mg/kg, po measured for 24 hrs by LC-MS/MS analysis; assay type: ADME, organism-based, Canis lupus familiaris; parameters: time 24 hrs, dose 5 mg/kg, route po; details: in vivo
[26] = test system: Rattus norvegicus; assay: Antiarthritic activity in adjuvant-induced arthritis rat model assessed as clinical score at 10 mg/kg, po administered twice a day for 14 days starting from day 13 to 27 post immunization and measured every 3 days a week; assay type: functional; details: time 14 day
[27] = test system: Rattus norvegicus; assay: Antiarthritic activity in adjuvant-induced arthritis rat model assessed as clinical score at 30 mg/kg, po administered twice a day for 14 days starting from day 13 to 27 post immunization and measured every 3 days a week; assay type: functional; details: time 14 day
[28] = test system: Rattus norvegicus; assay: Antiarthritic activity in adjuvant-induced arthritis rat model assessed as recovery of body weight at 1 to 30 mg/kg, po administered twice a day for 14 days starting from day 13 to 27 post immunization and measured every 3 days a week; assay type: functional, organism-based; details: dose 1-30 mg/kg, time 14.0 day
[29] = Toxicity in rat assessed as reduction in body weight at 10 mg/kg/day, po administered via gavage once a day pretreated for 9 weeks prior to co-cage and measured on day 74 relative to control; assay type: organism-based; parameters: scale not given: the % may be the effect or the level left; details: in vivo, 1776 h, time 74 day
[30] = Toxicity in rat assessed as reduction in body weight at 10 mg/kg/day, po administered via gavage once a day pretreated for 9 weeks prior to co-cage and measured on day 84 relative to control; assay type: organism-based; parameters: scale not given: the % may be the effect or the level left; details: in vivo, 2016 h, time 84 day
[31] = Toxicity in rat assessed as reduction in food intake at 10 mg/kg/day, po administered via gavage once a day pretreated for 9 weeks prior to co-cage and measured on day 74; assay type: organism-based; parameters: scale not given: the % may be the effect or the level left; details: in vivo, 1776 h, time 74 day
[32] = Toxicity in rat assessed as reduction in food intake at 10 mg/kg/day, po administered via gavage once a day pretreated for 9 weeks prior to co-cage and measured on day 84; assay type: organism-based; parameters: scale not given: the % may be the effect or the level left; details: in vivo, 2016 h, time 84 day
[33] = in vivo; details: Sprague-Dawley, rat, po, 10 mg/kg
[34] = in vivo; details: Sprague-Dawley, rat, po, 10 mg/kg; remark: listed apart in the source
[35] = in vivo; details: beagle, dog, po, 5 mg/kg
[36] = test system: Mus musculus; assay: Antiarthritic activity in collagen-induced rheumatoid arthritis DBA/1 mouse model assessed as reduction in incidence rate at 15 mg/kg, po BID administered for 14 days starting from 7 days before immunization to 21 days after immunization and measured on day 34 post immunization; assay type: functional; parameters: scale not given: the % may be the effect or the level left; details: time 14 day
[37] = test system: Mus musculus; assay: Antiarthritic activity in collagen-induced rheumatoid arthritis DBA/1 mouse model assessed as reduction in incidence rate at 15 mg/kg, po BID administered for 14 days starting from 7 days before immunization to 21 days after immunization and measured on day 41 post immunization; assay type: functional; parameters: scale not given: the % may be the effect or the level left; details: time 14 day

O=C(Nc1nc2cccc(C3CCC4(CC3)CN(C(=O)[C@@H]3CC3(F)F)C4)n2n1)C1CC1
Activity [1]: 1.5 | Activity [2]: 101% | Activity [3]: 81% | Activity [4]: 99% | Activity [5]: 34% | Activity [6]: 93% | Activity [7]: 97% | Activity [8]: 88% | Activity [9]: 84% | Activity [10]: 88% | Activity [11]: 109% | Activity [12]: 99% | Activity [13]: 85% | Activity [14]: 31% | Activity [15]: 95% | Activity [16]: 80% | Activity [17]: 90% | Activity [18]: 99% | Activity [19]: 93% | Activity [20]: 102% | half-life [21]: 3.06 h | Vd [22]: 1.81 L/kg | clearance [23]: 10.5 mL/min/kg | clearance [24]: 5.73 mL/min/kg | AUC at 24 h [25]: 16700 ng·h/mL | Activity [26]: 3.2 | Activity [27]: 2.7 | Activity [28]: Active | Activity [29]: 4.99% | Activity [30]: 5.53% | Activity [31]: 6.1% | Activity [32]: 7.8% | Cmax at 24 h [33]: 4960 ng/mL | bioavailability at 24 h [34]: 121% | Cmax at 24 h [35]: 2750 ng/mL

O=C(Nc1nc2cccc(C3CCC4(CC3)CCN(C(=O)[C@@H]3CC3(F)F)CC4)n2n1)C1CC1
Activity [36]: 88% | Activity [37]: 100%
